Measurements reported in PMC12090182, “Repurposing of the RIPK1-Selective Benzo[1,4]oxazepin-4-one Scaffold for the Development of a Type III LIMK1/2 Inhibitor” (ACS Chemical Biology, 2025).

Experiments:
Test in all cases: DSF selectivity screening
Assay type in all cases: binding
Settings in all cases: 10 μM compound
STK4A = STK4A (Homo sapiens, UniProt Q13043)
Method: (§1) The assay was performed as previously described.[29],[35] Briefly, recombinant protein kinase domains at a concentration of 2 μM were mixed with a 10 μM compound in a buffer containing 20 mM HEPES, pH 7.5, and 500 mM NaCl. SYPRO Orange (5000×, Invitrogen) was added as a fluorescence probe (1 μL per mL). Subsequently, temperature-dependent protein unfolding profiles were measured using a QuantStudio 5 real-time PCR machine (Thermo Fisher). Excitation and emission filters were set to 465 and 590 nm, respectively. The temperature was raised with a step rate of 3 °C per minute. Data points were analyzed with internal software (Thermal Shift Software version 1.4, Thermo Fisher) using the Boltzmann equation to determine the inflection point of the transition curve (Table S4).

FGFR3A = FGFR3A (Homo sapiens, UniProt P22607)
Method: as §1

NQO2A = NQO2A (Homo sapiens, UniProt P16083)
Method: as §1

CDK2A = CDK2A (Homo sapiens, UniProt P24941)
Method: as §1

CAMK4A = CAMK4A (Homo sapiens, UniProt Q16566)
Sequence of CAMK4A (Q16566 whole entry): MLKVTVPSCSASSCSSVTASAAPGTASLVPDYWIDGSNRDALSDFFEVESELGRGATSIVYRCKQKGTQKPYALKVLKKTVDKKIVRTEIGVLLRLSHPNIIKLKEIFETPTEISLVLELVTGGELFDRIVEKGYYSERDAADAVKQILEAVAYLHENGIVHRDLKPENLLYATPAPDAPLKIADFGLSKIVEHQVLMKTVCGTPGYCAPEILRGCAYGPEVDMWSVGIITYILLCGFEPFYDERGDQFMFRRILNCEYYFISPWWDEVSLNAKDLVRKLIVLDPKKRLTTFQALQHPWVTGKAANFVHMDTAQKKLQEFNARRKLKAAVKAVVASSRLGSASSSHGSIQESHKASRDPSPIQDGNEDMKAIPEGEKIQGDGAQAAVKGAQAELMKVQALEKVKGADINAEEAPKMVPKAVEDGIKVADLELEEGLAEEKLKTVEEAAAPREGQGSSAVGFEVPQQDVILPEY
Method: as §1

RIOK1A = RIOK1A (Homo sapiens, UniProt Q9BRS2)
Method: as §1

TAF1A = tested on: TAF1A
Method: as §1

FLT1A = FLT1A (Homo sapiens, UniProt P17948)
Sequence of FLT1A (P17948 801-1158): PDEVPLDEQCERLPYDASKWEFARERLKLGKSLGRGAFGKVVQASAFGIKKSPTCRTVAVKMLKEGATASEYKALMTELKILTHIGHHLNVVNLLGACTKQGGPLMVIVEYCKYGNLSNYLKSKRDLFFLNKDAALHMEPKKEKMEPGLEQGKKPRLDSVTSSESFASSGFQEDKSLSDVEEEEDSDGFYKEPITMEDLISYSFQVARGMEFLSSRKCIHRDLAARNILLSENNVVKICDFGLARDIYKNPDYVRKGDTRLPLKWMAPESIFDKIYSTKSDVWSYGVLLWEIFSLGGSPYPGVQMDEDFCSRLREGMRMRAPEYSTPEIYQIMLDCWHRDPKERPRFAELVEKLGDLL
Method: as §1

EPHA5A = EPHA5A (Homo sapiens, UniProt P54756)
Sequence of EPHA5A (P54756 653-939): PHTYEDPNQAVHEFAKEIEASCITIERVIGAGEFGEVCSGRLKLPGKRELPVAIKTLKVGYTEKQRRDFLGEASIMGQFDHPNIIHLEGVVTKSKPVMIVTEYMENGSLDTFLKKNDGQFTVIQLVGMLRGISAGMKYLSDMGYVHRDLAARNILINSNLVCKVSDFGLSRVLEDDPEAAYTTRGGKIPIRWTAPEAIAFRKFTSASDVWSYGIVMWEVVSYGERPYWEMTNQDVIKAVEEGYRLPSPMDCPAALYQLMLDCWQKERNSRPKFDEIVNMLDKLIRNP
Method: as §1

MST3A = MST3A (Homo sapiens, UniProt Q9Y6E0)
Method: as §1

MAP2K7 = MAP2K7 (Homo sapiens, UniProt O14733)
Method: as §1

CAMK1GA = CAMK1GA (Homo sapiens, UniProt Q96NX5)
Method: as §1

ULK3A = ULK3A (Homo sapiens, UniProt Q6PHR2)
Method: as §1

CSNK1DA = CSNK1DA (Homo sapiens, UniProt P48730)
Method: as §1

STK17BA = STK17BA (Homo sapiens, UniProt O94768)
Sequence of STK17BA (O94768 25-329): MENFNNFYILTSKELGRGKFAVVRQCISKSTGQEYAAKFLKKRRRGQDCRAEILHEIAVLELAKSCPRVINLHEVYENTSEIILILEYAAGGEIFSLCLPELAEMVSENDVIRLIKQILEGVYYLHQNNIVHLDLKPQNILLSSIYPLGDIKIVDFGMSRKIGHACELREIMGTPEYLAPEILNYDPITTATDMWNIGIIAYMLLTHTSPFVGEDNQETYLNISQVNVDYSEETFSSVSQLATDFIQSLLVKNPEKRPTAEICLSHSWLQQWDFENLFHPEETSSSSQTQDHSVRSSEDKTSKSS
Method: as §1

STK6A = STK6A (Homo sapiens, UniProt O14965)
Sequence of STK6A (O14965 122-403): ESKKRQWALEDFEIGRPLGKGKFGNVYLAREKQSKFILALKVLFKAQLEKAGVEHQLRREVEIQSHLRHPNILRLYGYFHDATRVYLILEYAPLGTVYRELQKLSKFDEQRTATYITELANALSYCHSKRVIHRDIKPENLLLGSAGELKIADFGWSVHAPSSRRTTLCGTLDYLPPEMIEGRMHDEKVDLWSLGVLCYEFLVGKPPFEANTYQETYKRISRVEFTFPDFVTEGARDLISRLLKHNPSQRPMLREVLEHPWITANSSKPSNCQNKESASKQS
Method: as §1

ULK1A = ULK1A (Homo sapiens, UniProt O75385)
Method: as §1

PDK4A = PDK4A (Homo sapiens, UniProt Q16654)
Method: as §1

TLK1A = TLK1A (Homo sapiens, UniProt Q9UKI8)
Sequence of TLK1A (Q9UKI8 456-734): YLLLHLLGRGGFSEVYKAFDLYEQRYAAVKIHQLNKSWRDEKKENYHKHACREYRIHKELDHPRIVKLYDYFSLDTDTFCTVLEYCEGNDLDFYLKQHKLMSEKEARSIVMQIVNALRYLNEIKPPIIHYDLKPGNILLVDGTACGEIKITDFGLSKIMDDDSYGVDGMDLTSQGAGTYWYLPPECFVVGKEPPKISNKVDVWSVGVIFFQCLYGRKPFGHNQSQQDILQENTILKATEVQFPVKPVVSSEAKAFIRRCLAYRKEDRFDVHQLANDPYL
Method: as §1

CHEK2A = CHEK2A (Homo sapiens, UniProt O96017)
Sequence of CHEK2A (O96017 210-531): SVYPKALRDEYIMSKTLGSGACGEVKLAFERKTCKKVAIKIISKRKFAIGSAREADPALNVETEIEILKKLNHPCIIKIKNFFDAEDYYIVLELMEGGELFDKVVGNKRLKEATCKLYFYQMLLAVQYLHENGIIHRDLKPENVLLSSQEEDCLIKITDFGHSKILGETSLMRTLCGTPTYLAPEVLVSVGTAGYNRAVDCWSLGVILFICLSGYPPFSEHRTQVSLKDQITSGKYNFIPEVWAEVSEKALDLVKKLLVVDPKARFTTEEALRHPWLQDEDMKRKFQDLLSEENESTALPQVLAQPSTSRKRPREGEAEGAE
Method: as §1

AURKBA = AURKBA (Homo sapiens, UniProt Q96GD4)
Method: as §1

TTKA = TTKA (Homo sapiens, UniProt P33981)
Method: as §1

SRPK1A = SRPK1A (Homo sapiens, UniProt Q96SB4)
Sequence of SRPK1A (Q96SB4 whole entry): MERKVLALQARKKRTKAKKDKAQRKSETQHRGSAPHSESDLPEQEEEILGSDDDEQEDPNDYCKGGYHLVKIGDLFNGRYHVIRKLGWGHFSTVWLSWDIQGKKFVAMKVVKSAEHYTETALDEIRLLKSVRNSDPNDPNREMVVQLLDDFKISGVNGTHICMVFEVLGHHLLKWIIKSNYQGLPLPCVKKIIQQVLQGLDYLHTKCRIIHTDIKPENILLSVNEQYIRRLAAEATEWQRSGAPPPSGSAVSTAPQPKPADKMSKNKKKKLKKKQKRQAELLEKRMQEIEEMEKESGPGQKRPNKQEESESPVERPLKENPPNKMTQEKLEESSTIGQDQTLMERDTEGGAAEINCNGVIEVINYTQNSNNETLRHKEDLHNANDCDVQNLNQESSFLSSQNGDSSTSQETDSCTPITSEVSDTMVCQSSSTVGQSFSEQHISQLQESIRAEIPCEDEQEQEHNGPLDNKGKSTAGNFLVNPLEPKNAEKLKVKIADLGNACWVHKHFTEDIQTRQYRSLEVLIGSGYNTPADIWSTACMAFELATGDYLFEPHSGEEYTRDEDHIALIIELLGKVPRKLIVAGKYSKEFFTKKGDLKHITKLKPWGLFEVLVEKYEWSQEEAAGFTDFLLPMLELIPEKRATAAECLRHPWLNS
Method: as §1

FGFR1B = FGFR1B (Homo sapiens, UniProt P11362)
Method: as §1

MELKA = MELKA (Homo sapiens, UniProt Q14680)
Sequence of MELKA (Q14680 1-340): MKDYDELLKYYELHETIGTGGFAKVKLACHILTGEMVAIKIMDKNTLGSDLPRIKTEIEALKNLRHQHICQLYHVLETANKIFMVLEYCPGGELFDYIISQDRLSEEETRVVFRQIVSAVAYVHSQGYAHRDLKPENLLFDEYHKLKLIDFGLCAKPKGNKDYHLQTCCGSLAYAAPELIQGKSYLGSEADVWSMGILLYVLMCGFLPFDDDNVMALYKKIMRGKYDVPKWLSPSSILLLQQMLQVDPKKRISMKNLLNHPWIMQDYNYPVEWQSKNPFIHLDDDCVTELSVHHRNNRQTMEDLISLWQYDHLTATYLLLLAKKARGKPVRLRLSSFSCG
Method: as §1

EPHA4A = EPHA4A (Homo sapiens, UniProt P54764)
Method: as §1

MST4A = MST4A (Homo sapiens, UniProt Q9P289)
Sequence of MST4A (Q9P289 1-300): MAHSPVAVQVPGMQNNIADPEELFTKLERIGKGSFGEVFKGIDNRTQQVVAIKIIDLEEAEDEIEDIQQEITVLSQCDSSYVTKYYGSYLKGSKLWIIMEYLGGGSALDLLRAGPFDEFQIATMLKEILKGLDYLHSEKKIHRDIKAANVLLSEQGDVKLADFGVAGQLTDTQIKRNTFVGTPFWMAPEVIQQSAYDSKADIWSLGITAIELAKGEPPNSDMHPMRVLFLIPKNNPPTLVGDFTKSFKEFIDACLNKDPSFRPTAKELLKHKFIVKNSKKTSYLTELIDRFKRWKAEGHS
Method: as §1

BRAFA = BRAFA (Homo sapiens, UniProt P15056)
Method: as §1

DAPK3A = DAPK3A (Homo sapiens, UniProt O43293)
Method: as §1

MAPK10A = MAPK10A (Homo sapiens, UniProt P53779)
Sequence of MAPK10A (P53779 39-402): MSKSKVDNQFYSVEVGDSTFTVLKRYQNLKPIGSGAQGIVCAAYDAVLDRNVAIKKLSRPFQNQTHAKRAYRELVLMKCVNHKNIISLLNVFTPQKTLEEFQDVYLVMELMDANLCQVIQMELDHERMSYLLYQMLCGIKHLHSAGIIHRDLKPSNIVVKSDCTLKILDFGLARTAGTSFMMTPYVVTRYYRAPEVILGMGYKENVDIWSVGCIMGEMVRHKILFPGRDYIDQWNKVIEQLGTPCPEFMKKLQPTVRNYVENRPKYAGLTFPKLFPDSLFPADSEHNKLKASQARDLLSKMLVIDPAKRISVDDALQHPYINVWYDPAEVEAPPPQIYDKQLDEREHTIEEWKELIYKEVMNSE
Method: as §1

MAP2K1A = MAP2K1A (Homo sapiens, UniProt Q02750)
Method: as §1

MAPKAPK2A = MAPKAPK2A (Homo sapiens, UniProt P49137)
Method: as §1

DYRK2A = DYRK2A (Homo sapiens, UniProt Q92630)
Method: as §1

SLKA = SLKA (Homo sapiens, UniProt Q9H2G2)
Method: as §1

WNK1A = WNK1A (Homo sapiens, UniProt Q9H4A3)
Method: as §1

STK3A = STK3A (Homo sapiens, UniProt Q13188)
Sequence of STK3A (Q13188 16-313): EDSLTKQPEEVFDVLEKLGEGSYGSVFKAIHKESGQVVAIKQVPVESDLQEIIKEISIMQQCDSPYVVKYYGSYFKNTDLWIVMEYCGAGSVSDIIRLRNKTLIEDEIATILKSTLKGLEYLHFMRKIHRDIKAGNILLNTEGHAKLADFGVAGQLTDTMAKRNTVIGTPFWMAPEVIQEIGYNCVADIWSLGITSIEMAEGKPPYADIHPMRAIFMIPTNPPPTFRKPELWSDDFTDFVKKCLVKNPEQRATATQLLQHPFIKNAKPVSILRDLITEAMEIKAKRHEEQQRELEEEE
Method: as §1

MAP2K4A = MAP2K4A (Homo sapiens, UniProt P45985)
Method: as §1

STK17AA = STK17AA (Homo sapiens, UniProt Q9UEE5)
Method: as §1

PHKG2A = PHKG2A (Homo sapiens, UniProt P15735)
Method: as §1

GAKA = GAKA (Homo sapiens, UniProt O14976)
Method: as §1

PIM1A = PIM1A (Homo sapiens, UniProt P11309)
Sequence of PIM1A (P11309 whole entry): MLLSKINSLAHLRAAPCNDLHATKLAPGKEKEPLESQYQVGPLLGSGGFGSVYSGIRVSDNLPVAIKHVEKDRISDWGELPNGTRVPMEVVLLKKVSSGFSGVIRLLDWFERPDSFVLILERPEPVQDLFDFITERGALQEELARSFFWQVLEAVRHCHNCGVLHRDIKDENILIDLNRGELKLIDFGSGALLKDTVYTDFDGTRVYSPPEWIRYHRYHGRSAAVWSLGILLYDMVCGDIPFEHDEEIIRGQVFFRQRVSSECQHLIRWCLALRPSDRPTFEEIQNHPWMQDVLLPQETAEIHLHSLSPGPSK
Method: as §1

Sequence of STK4A (Q13043 30-281): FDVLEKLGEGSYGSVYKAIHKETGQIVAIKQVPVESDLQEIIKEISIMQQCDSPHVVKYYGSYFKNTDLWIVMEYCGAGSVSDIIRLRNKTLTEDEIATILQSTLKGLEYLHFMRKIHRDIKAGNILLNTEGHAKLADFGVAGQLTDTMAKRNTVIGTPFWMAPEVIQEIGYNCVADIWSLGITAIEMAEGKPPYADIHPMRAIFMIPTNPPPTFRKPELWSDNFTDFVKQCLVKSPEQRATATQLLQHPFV

CN1C(=O)[C@@H](N2CCc3c(nn(Cc4ccccc4)c3C(N)=O)C2=O)COc2cc(Cl)ccc21 [Compound 10, (S)-2-benzyl-6-(8-chloro-5-methyl-4-oxo-2,3,4,5-tetrahydrobenzo[b][1,4]oxazepin-3-yl)-7-oxo-4,5,6,7-tetrahydro-2H-pyrazolo[3,4-c]pyridine-3-carboxamide]
-0.9 °C: ΔTm at 10 µM (PIM1A)
0 °C: ΔTm at 10 µM (CDK2A) | ΔTm at 10 µM (EPHA5A) | ΔTm at 10 µM (PDK4A) | ΔTm at 10 µM (TLK1A) | ΔTm at 10 µM (SRPK1A) | ΔTm at 10 µM (MAPK10A) | ΔTm at 10 µM (MAPKAPK2A) | ΔTm at 10 µM (STK17AA) | ΔTm at 10 µM (PHKG2A) | ΔTm at 10 µM (GAKA)
0.5 °C: ΔTm at 10 µM (RIOK1A) | ΔTm at 10 µM (CSNK1DA)
-0.1 °C: ΔTm at 10 µM (CHEK2A) | ΔTm at 10 µM (FGFR1B) | ΔTm at 10 µM (MST4A) | ΔTm at 10 µM (DAPK3A)
0.4 °C: ΔTm at 10 µM (WNK1A)
0.3 K: ΔTM (TAF1A)
0.6 °C: ΔTm at 10 µM (NQO2A)
0.2 °C: ΔTm at 10 µM (FLT1A) | ΔTm at 10 µM (ULK3A) | ΔTm at 10 µM (AURKBA) | ΔTm at 10 µM (EPHA4A) | ΔTm at 10 µM (STK3A)
-0.2 °C: ΔTm at 10 µM (CAMK1GA)
0.1 °C: ΔTm at 10 µM (FGFR3A) | ΔTm at 10 µM (CAMK4A) | ΔTm at 10 µM (STK17BA) | ΔTm at 10 µM (STK6A) | ΔTm at 10 µM (ULK1A) | ΔTm at 10 µM (MELKA) | ΔTm at 10 µM (BRAFA) | ΔTm at 10 µM (MAP2K1A) | ΔTm at 10 µM (DYRK2A) | ΔTm at 10 µM (MAP2K4A)
-0.5 °C: ΔTm at 10 µM (STK4A)
-0.3 °C: ΔTm at 10 µM (MST3A) | ΔTm at 10 µM (TTKA) | ΔTm at 10 µM (SLKA)
1.1 °C: ΔTm at 10 µM (MAP2K7)
